Data as given in patent US8212050B2, “Amidine compounds and herbicides” (Nippon Soda Co., Ltd., priority 2005, dated 2012).

Row | melting point [°C] | Compound
1 | 73 to 75 | C#CCOc1cc(N=C(C=NOC)N2CCCC2)c(F)cc1Cl [compound 190, 2-(4-chloro-2-fluoro-5-propargyloxyphenylimino)-2-(pyrrolidine-1-yl)acetaldehyde O-methyloxime]
2 | 160 to 163 | CCOC(=O)C(C)Oc1cc(N=C(C(N)=O)N2CCCC2)c(Cl)cc1Cl (centres unmarked) [compound 293, 2-[2,4-dichloro-5-(1-ethoxycarbonylethoxy)phenylimino]-2-(pyrrolidine-1-yl)acetamide]
